Measurements from PubChem BioAssay (NCI).
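Following 48 hours of exposure in 96-well plates, responses at five concentrations were used to interpolate endpoints linearly. At the GI50, growth is halved. The concentration for full growth arrest is given as TGI.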

Experiments:
Assay in all cases: NCI tumour cell line growth inhibition, 48 h
RXF 393 renal = tested on: RXF 393 renal
HL-60(TB) leukemia = tested on: HL-60(TB) leukemia
SK-OV-3 ovarian = tested on: SK-OV-3 ovarian
SK-MEL-2 melanoma = tested on: SK-MEL-2 melanoma
HS 578T breast = tested on: HS 578T breast
SF-268 CNS = tested on: SF-268 CNS
NCI/ADR-RES ovarian = tested on: NCI/ADR-RES ovarian
IGROV1 ovarian = tested on: IGROV1 ovarian
HCT-116 colon = tested on: HCT-116 colon
HOP-62 NSCLC = tested on: HOP-62 NSCLC
DU-145 prostate = tested on: DU-145 prostate
LOX IMVI melanoma = tested on: LOX IMVI melanoma
TK-10 renal = tested on: TK-10 renal
A549 NSCLC = tested on: A549 NSCLC
SK-MEL-5 melanoma = tested on: SK-MEL-5 melanoma
OVCAR-3 ovarian = tested on: OVCAR-3 ovarian
KM12 colon = tested on: KM12 colon
RPMI-8226 leukemia = tested on: RPMI-8226 leukemia
UO-31 renal = tested on: UO-31 renal
CCRF-CEM leukemia = tested on: CCRF-CEM leukemia
SN12C renal = tested on: SN12C renal
SF-539 CNS = tested on: SF-539 CNS
NCI-H522 lung = tested on: NCI-H522 lung
MOLT-4 leukemia = tested on: MOLT-4 leukemia
SR leukemia = tested on: SR leukemia
NCI-H23 lung = tested on: NCI-H23 lung
MDA-MB-435 = tested on: MDA-MB-435
EKVX NSCLC = tested on: EKVX NSCLC
NCI-H460 lung = tested on: NCI-H460 lung
SNB-19 CNS = tested on: SNB-19 CNS
UACC-62 melanoma = tested on: UACC-62 melanoma
OVCAR-8 ovarian = tested on: OVCAR-8 ovarian
K-562 leukemia = tested on: K-562 leukemia
CAKI-1 renal = tested on: CAKI-1 renal
SK-MEL-28 melanoma = tested on: SK-MEL-28 melanoma
U251 CNS = tested on: U251 CNS
MDA-MB-231 breast = tested on: MDA-MB-231 breast
OVCAR-4 ovarian = tested on: OVCAR-4 ovarian
786-0 renal = tested on: 786-0 renal
NCI-H226 lung = tested on: NCI-H226 lung
PC-3 prostate = tested on: PC-3 prostate
M14 melanoma = tested on: M14 melanoma
SF-295 CNS = tested on: SF-295 CNS
OVCAR-5 ovarian = tested on: OVCAR-5 ovarian
COLO 205 colon = tested on: COLO 205 colon
SW-620 colon = tested on: SW-620 colon
HCT-15 colon = tested on: HCT-15 colon
T-47D breast = tested on: T-47D breast
MCF7 breast = tested on: MCF7 breast
A498 renal = tested on: A498 renal
UACC-257 melanoma = tested on: UACC-257 melanoma
MALME-3M melanoma = tested on: MALME-3M melanoma

In the case of CCOC(=O)/C(C#N)=C\C=C(\Sc1nc2ccccc2s1)c1ccc(Cl)cc1, the GI50 (RXF 393 renal) is reported as 18.3 µM, the TGI (RXF 393 renal) is reported as 37.6 µM and the GI50 (HL-60(TB) leukemia) is reported as 24.2 µM. For the same compound, the TGI (HL-60(TB) leukemia) was > 100 µM, the GI50 (SK-OV-3 ovarian) was 39.6 µM and the TGI (SK-OV-3 ovarian) was > 100 µM. For the same compound, the GI50 (SK-MEL-2 melanoma) was 14.8 µM, the TGI (SK-MEL-2 melanoma) was 33.5 µM and the GI50 (HS 578T breast) was 31.6 µM. For the same compound, the TGI (HS 578T breast) was 68 µM, the GI50 (SF-268 CNS) was 31.8 µM and the TGI (SF-268 CNS) was > 100 µM. It also gave a GI50 (NCI/ADR-RES ovarian) of 27.5 µM, a TGI (NCI/ADR-RES ovarian) of 61.2 µM and a GI50 (IGROV1 ovarian) of 18.8 µM. The TGI (IGROV1 ovarian) was 37.6 µM, the GI50 (HCT-116 colon) was 17.1 µM and the TGI (HCT-116 colon) was 33.1 µM. The GI50 (HOP-62 NSCLC) was 29.1 µM, the TGI (HOP-62 NSCLC) was 72.2 µM and the GI50 (DU-145 prostate) was 18.7 µM. For the same compound, the TGI (DU-145 prostate) was 35.4 µM, the GI50 (LOX IMVI melanoma) was 10.9 µM and the TGI (LOX IMVI melanoma) was > 100 µM. For the same compound, the GI50 (TK-10 renal) was 20 µM, the TGI (TK-10 renal) was 37.3 µM and the GI50 (A549 NSCLC) was > 100 µM. For the same compound, the TGI (A549 NSCLC) was > 100 µM, the GI50 (SK-MEL-5 melanoma) was 15.1 µM and the TGI (SK-MEL-5 melanoma) was 31.9 µM. The GI50 (OVCAR-3 ovarian) was 14.4 µM, the TGI (OVCAR-3 ovarian) was 27.5 µM and the GI50 (KM12 colon) was 38 µM. For the same compound, the TGI (KM12 colon) was > 100 µM, the GI50 (RPMI-8226 leukemia) was 2470 nM and the TGI (RPMI-8226 leukemia) was 14 µM. For the same compound, the GI50 (UO-31 renal) was 17 µM, the TGI (UO-31 renal) was 35.4 µM and the GI50 (CCRF-CEM leukemia) was 2280 nM. The TGI (CCRF-CEM leukemia) was 9.5 µM, the GI50 (SN12C renal) was 19.9 µM and the TGI (SN12C renal) was 45.2 µM. The GI50 (SF-539 CNS) was 22.1 µM, the TGI (SF-539 CNS) was 40.8 µM and the GI50 (NCI-H522 lung) was 18.5 µM. The TGI (NCI-H522 lung) was 41.4 µM, the GI50 (MOLT-4 leukemia) was 3.88 µM and the TGI (MOLT-4 leukemia) was > 100 µM. The GI50 (SR leukemia) was 4.91 µM, the TGI (SR leukemia) was 46.9 µM and the GI50 (NCI-H23 lung) was 20.9 µM. For the same compound, the TGI (NCI-H23 lung) was 38.9 µM, the GI50 (MDA-MB-435) was 16.8 µM and the TGI (MDA-MB-435) was 35.3 µM. For the same compound, the GI50 (EKVX NSCLC) was 14.8 µM, the TGI (EKVX NSCLC) was 31.6 µM and the GI50 (NCI-H460 lung) was 80.8 µM. The TGI (NCI-H460 lung) was > 100 µM, the GI50 (SNB-19 CNS) was 66.6 µM and the TGI (SNB-19 CNS) was > 100 µM. It also gave a GI50 (UACC-62 melanoma) of 29.8 µM, a TGI (UACC-62 melanoma) of 81.5 µM and a GI50 (OVCAR-8 ovarian) of 30.4 µM. For the same compound, the TGI (OVCAR-8 ovarian) was 83.9 µM, the GI50 (K-562 leukemia) was 20.2 µM and the TGI (K-562 leukemia) was > 100 µM. For the same compound, the GI50 (CAKI-1 renal) was 19.5 µM, the TGI (CAKI-1 renal) was 41.4 µM and the GI50 (SK-MEL-28 melanoma) was 25.5 µM. The TGI (SK-MEL-28 melanoma) was 69.5 µM, the GI50 (U251 CNS) was 29 µM and the TGI (U251 CNS) was > 100 µM. For the same compound, the GI50 (MDA-MB-231 breast) was 50.9 µM, the TGI (MDA-MB-231 breast) was > 100 µM and the GI50 (OVCAR-4 ovarian) was 22 µM. It also gave a TGI (OVCAR-4 ovarian) of 57.8 µM, a GI50 (786-0 renal) of 19.3 µM and a TGI (786-0 renal) of 36.3 µM. The GI50 (NCI-H226 lung) was 24 µM, the TGI (NCI-H226 lung) was 46.7 µM and the GI50 (PC-3 prostate) was 13.5 µM. The TGI (PC-3 prostate) was 26.3 µM, the GI50 (M14 melanoma) was 26.4 µM and the TGI (M14 melanoma) was 54.3 µM. The GI50 (SF-295 CNS) was 37.9 µM, the TGI (SF-295 CNS) was > 100 µM and the GI50 (OVCAR-5 ovarian) was > 100 µM. For the same compound, the TGI (OVCAR-5 ovarian) was > 100 µM, the GI50 (COLO 205 colon) was 20.1 µM and the TGI (COLO 205 colon) was 42.8 µM. For the same compound, the GI50 (SW-620 colon) was 14.3 µM, the TGI (SW-620 colon) was 39.2 µM and the GI50 (HCT-15 colon) was 16.4 µM. The TGI (HCT-15 colon) was 45.2 µM, the GI50 (T-47D breast) was 20.3 µM and the TGI (T-47D breast) was 45.1 µM. It also gave a GI50 (MCF7 breast) of 29.1 µM, a TGI (MCF7 breast) of 84.5 µM and a GI50 (A498 renal) of 27.7 µM. It also gave a TGI (A498 renal) of 72.5 µM, a GI50 (UACC-257 melanoma) of 13.7 µM and a TGI (UACC-257 melanoma) of 46.8 µM. The GI50 (MALME-3M melanoma) was 19.4 µM and the TGI (MALME-3M melanoma) was 37.9 µM.
